Assay results reported in PubChem BioAssay (NCI).
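Results reflect a 48-hour exposure of cells in 96-well plates to compound at five concentrations. Here, GI50 denotes the concentration required for 50% inhibition of growth. TGI: total growth inhibition.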

Key:
Assay in all cases: DTP human tumour cell line panel, 48 h
[1] = test system: MDA-MB-435
[2] = test system: 786-0 renal
[3] = test system: NCI-H226 lung
[4] = test system: OVCAR-4 ovarian
[5] = test system: K-562 leukemia
[6] = test system: A549 NSCLC
[7] = test system: DU-145 prostate
[8] = test system: BT-549 breast
[9] = test system: NCI/ADR-RES ovarian
[10] = test system: MOLT-4 leukemia
[11] = test system: RPMI-8226 leukemia
[12] = test system: OVCAR-5 ovarian
[13] = test system: HOP-92 NSCLC
[14] = test system: HCT-15 colon
[15] = test system: SK-OV-3 ovarian
[16] = test system: HCC-2998 colon
[17] = test system: HOP-62 NSCLC
[18] = test system: SNB-75 CNS
[19] = test system: EKVX NSCLC
[20] = test system: HCT-116 colon
[21] = test system: HS 578T breast
[22] = test system: SNB-19 CNS
[23] = test system: OVCAR-8 ovarian
[24] = test system: NCI-H460 lung
[25] = test system: CCRF-CEM leukemia
[26] = test system: T-47D breast
[27] = test system: NCI-H23 lung
[28] = test system: OVCAR-3 ovarian
[29] = test system: SN12C renal
[30] = test system: SK-MEL-2 melanoma
[31] = test system: SK-MEL-5 melanoma
[32] = test system: CAKI-1 renal
[33] = test system: UACC-62 melanoma
[34] = test system: PC-3 prostate
[35] = test system: MALME-3M melanoma
[36] = test system: SF-539 CNS
[37] = test system: HL-60(TB) leukemia
[38] = test system: UO-31 renal
[39] = test system: U251 CNS
[40] = test system: A498 renal
[41] = test system: LOX IMVI melanoma
[42] = test system: IGROV1 ovarian
[43] = test system: SF-268 CNS
[44] = test system: TK-10 renal
[45] = test system: KM12 colon
[46] = test system: SW-620 colon
[47] = test system: SK-MEL-28 melanoma
[48] = test system: SF-295 CNS
[49] = test system: MCF7 breast
[50] = test system: ACHN renal
[51] = test system: COLO 205 colon
[52] = test system: HT29 colon
[53] = test system: UACC-257 melanoma
[54] = test system: SR leukemia
[55] = test system: RXF 393 renal
[56] = test system: MDA-MB-231 breast
[57] = test system: NCI-H522 lung
[58] = test system: M14 melanoma

`C[C@]12CC[C@H]3[C@@H](CC=C4C[C@@H](O)CC[C@@]43C)[C@@H]1CC[C@@H]2[C@](C)(O)CCc1cccnc1` was tested, and the GI50 [1] was 4.6 µM, the TGI [1] was greater than 100 µM and the GI50 [2] was 5.76 µM. The TGI [2] was greater than 100 µM, the GI50 [3] was 3.7 µM and the TGI [3] was 55 µM. The GI50 [4] was 1.25 µM, the TGI [4] was greater than 100 µM and the GI50 [5] was 2.13 µM. It also gave a TGI [5] greater than 100 µM, a GI50 [6] of 4.44 µM and a TGI [6] greater than 100 µM. It also gave a GI50 [7] of 3.48 µM, a TGI [7] greater than 100 µM and a GI50 [8] of 1.69 µM. It also gave a TGI [8] of 6.55 µM, a GI50 [9] of 3.43 µM and a TGI [9] greater than 100 µM. It also gave a GI50 [10] of 2.75 µM, a TGI [10] of 24 µM and a GI50 [11] of 1.88 µM. The TGI [11] was 49.9 µM, the GI50 [12] was greater than 100 µM and the TGI [12] was greater than 100 µM. The GI50 [13] was 2.11 µM, the TGI [13] was greater than 100 µM and the GI50 [14] was 4.29 µM. It also gave a TGI [14] greater than 100 µM, a GI50 [15] of 6.49 µM and a TGI [15] greater than 100 µM. The GI50 [16] was 4.99 µM, the TGI [16] was greater than 100 µM and the GI50 [17] was 9.27 µM. The TGI [17] was greater than 100 µM, the GI50 [18] was 2.92 µM and the TGI [18] was greater than 100 µM. The GI50 [19] was 1.59 µM, the TGI [19] was greater than 100 µM and the GI50 [20] was 3.42 µM. For the same molecule, the TGI [20] was greater than 100 µM, the GI50 [21] was 3.41 µM and the TGI [21] was greater than 100 µM. The GI50 [22] was 6.77 µM, the TGI [22] was greater than 100 µM and the GI50 [23] was 4.82 µM. The TGI [23] was greater than 100 µM, the GI50 [24] was 3.99 µM and the TGI [24] was greater than 100 µM. For the same molecule, the GI50 [25] was 4.1 µM, the TGI [25] was greater than 100 µM and the GI50 [26] was 2.09 µM. It also gave a TGI [26] greater than 100 µM, a GI50 [27] of 3.05 µM and a TGI [27] greater than 100 µM. For the same molecule, the GI50 [28] was 9.14 µM, the TGI [28] was greater than 100 µM and the GI50 [29] was 47.1 µM. It also gave a TGI [29] greater than 100 µM, a GI50 [30] of 7.44 µM and a TGI [30] greater than 100 µM. For the same molecule, the GI50 [31] was 1.01 µM, the TGI [31] was 2.6 µM and the GI50 [32] was 7.1 µM. It also gave a TGI [32] greater than 100 µM, a GI50 [33] of 3.19 µM and a TGI [33] greater than 100 µM. For the same molecule, the GI50 [34] was 3.55 µM, the TGI [34] was greater than 100 µM and the GI50 [35] was 2.57 µM. The TGI [35] was 8.14 µM, the GI50 [36] was 6.11 µM and the TGI [36] was greater than 100 µM. For the same molecule, the GI50 [37] was 2.42 µM, the TGI [37] was 7.04 µM and the GI50 [38] was 1.97 µM. It also gave a TGI [38] greater than 100 µM, a GI50 [39] of 6.5 µM and a TGI [39] greater than 100 µM. It also gave a GI50 [40] of 2.74 µM, a TGI [40] of 62.1 µM and a GI50 [41] of 5.63 µM. For the same molecule, the TGI [41] was greater than 100 µM, the GI50 [42] was 6.37 µM and the TGI [42] was greater than 100 µM. The GI50 [43] was 5.3 µM, the TGI [43] was greater than 100 µM and the GI50 [44] was 7.58 µM. It also gave a TGI [44] greater than 100 µM, a GI50 [45] of 5.55 µM and a TGI [45] greater than 100 µM. The GI50 [46] was 5.49 µM, the TGI [46] was greater than 100 µM and the GI50 [47] was 4.27 µM. The TGI [47] was greater than 100 µM, the GI50 [48] was 2.21 µM and the TGI [48] was 9.64 µM. For the same molecule, the GI50 [49] was 2.28 µM, the TGI [49] was greater than 100 µM and the GI50 [50] was 4.53 µM. For the same molecule, the TGI [50] was greater than 100 µM, the GI50 [51] was 3.16 µM and the TGI [51] was greater than 100 µM. For the same molecule, the GI50 [52] was 4.6 µM, the TGI [52] was greater than 100 µM and the GI50 [53] was 3.03 µM. The TGI [53] was greater than 100 µM, the GI50 [54] was 2.95 µM and the TGI [54] was greater than 100 µM. For the same molecule, the GI50 [55] was 1.94 µM, the TGI [55] was 7.78 µM and the GI50 [56] was 6.39 µM. For the same molecule, the TGI [56] was greater than 100 µM, the GI50 [57] was 2.09 µM and the TGI [57] was 7.79 µM.

Molecule `CC1=C2C(=C[C@@](C)(COC(=O)c3ccc(S(=O)(=O)F)cc3)[C@@H]2OC(=O)c2ccc(S(=O)(=O)F)cc2)C(=O)[C@](C)(O)C12CC2` has a GI50 [1] of 1.48 µM, a TGI [1] of 3.71 µM and a GI50 [2] of 1.4 µM. The TGI [2] was 4.68 µM, the GI50 [4] was 1.78 µM and the TGI [4] was 7.51 µM. The GI50 [5] was 0.733 µM, the TGI [5] was 13 µM and the GI50 [6] was 3.04 µM. It also gave a TGI [6] of 9.27 µM, a GI50 [7] of 0.373 µM and a TGI [7] of 5.48 µM. The GI50 [8] was 1.26 µM, the TGI [8] was 3.01 µM and the GI50 [9] was 0.698 µM. For the same molecule, the TGI [9] was 9.63 µM, the GI50 [10] was 1.01 µM and the TGI [10] was 8.73 µM. It also gave a GI50 [11] of 3.34 µM, a TGI [11] of 17.5 µM and a GI50 [12] of 0.558 µM. The TGI [12] was 4.33 µM, the GI50 [13] was 2.11 µM and the TGI [13] was 5.62 µM. For the same molecule, the GI50 [14] was 0.439 µM, the TGI [14] was 4.42 µM and the GI50 [16] was 1.31 µM. The TGI [16] was 3.06 µM, the GI50 [17] was 1.46 µM and the TGI [17] was 5.88 µM. It also gave a GI50 [18] of 1.35 µM, a TGI [18] of 2.66 µM and a GI50 [19] of 3.04 µM. It also gave a TGI [19] of 9.33 µM, a GI50 [20] of 0.319 µM and a TGI [20] of 1.92 µM. For the same molecule, the GI50 [21] was 2.37 µM, the TGI [21] was 6.63 µM and the GI50 [22] was 2.54 µM. It also gave a TGI [22] of 14.2 µM, a GI50 [23] of 0.631 µM and a TGI [23] of 4.01 µM. It also gave a GI50 [24] of 0.206 µM, a TGI [24] of 0.48 µM and a GI50 [25] of 2.28 µM. For the same molecule, the TGI [25] was 15.3 µM, the GI50 [26] was 1.23 µM and the TGI [26] was 4.5 µM. It also gave a GI50 [28] of 0.549 µM, a TGI [28] of 3.9 µM and a GI50 [29] of 1.73 µM. The TGI [29] was 11.5 µM, the GI50 [30] was 1.76 µM and the TGI [30] was 3.41 µM. It also gave a GI50 [31] of 1.48 µM, a TGI [31] of 2.92 µM and a GI50 [32] of 0.466 µM. The TGI [32] was 10.8 µM, the GI50 [33] was 1.64 µM and the TGI [33] was 4 µM. It also gave a GI50 [34] of 1.07 µM, a TGI [34] of 11.3 µM and a GI50 [35] of 1.16 µM. It also gave a TGI [35] of 2.94 µM, a GI50 [36] of 1.56 µM and a TGI [36] of 3.96 µM. For the same molecule, the GI50 [37] was 0.433 µM, the TGI [37] was 3.14 µM and the GI50 [38] was 0.815 µM. The TGI [38] was 3.22 µM, the GI50 [39] was 1.62 µM and the TGI [39] was 5.42 µM. It also gave a GI50 [40] of 1.82 µM, a TGI [40] of 4.29 µM and a GI50 [58] of 1.36 µM. For the same molecule, the TGI [58] was 3.32 µM, the GI50 [41] was 1.15 µM and the TGI [41] was 6.38 µM. For the same molecule, the GI50 [42] was 0.478 µM, the TGI [42] was 6.42 µM and the GI50 [43] was 0.705 µM. The TGI [43] was 9.1 µM, the GI50 [44] was 2.75 µM and the TGI [44] was 6.87 µM. For the same molecule, the GI50 [45] was 2.95 µM, the TGI [45] was 12.7 µM and the GI50 [46] was 0.607 µM. For the same molecule, the TGI [46] was 10.2 µM, the GI50 [47] was 1.71 µM and the TGI [47] was 3.88 µM. The GI50 [48] was 2.4 µM, the TGI [48] was 7.63 µM and the GI50 [49] was 0.342 µM. The TGI [49] was 3.96 µM, the GI50 [51] was 0.638 µM and the TGI [51] was 2.25 µM. The GI50 [52] was 0.406 µM, the TGI [52] was 6.4 µM and the GI50 [53] was 1.88 µM. For the same molecule, the TGI [53] was 3.69 µM, the GI50 [54] was 0.48 µM and the TGI [54] was 10.2 µM. It also gave a GI50 [55] of 0.337 µM, a TGI [55] of 0.965 µM and a GI50 [56] of 1.54 µM. The TGI [56] was 7.41 µM, the GI50 [57] was 0.474 µM and the TGI [57] was 2.1 µM.
